Reference: ChEMBL document CHEMBL5154706, “Synthesis of lathyrane diterpenoid nitrogen-containing heterocyclic derivatives and evaluation of their anti-inflammatory activities” (Bioorg Med Chem, 2022)
Calls of active or inactive are those of the source. No cut-off for these calls is given here.

These compounds were tested on RAW264.7 (assay: Antiinflammatory activity against mouse RAW264.7 cells assessed as inhibition of LPS-induced NO production preincubated for 3 hrs followed by LPS stimulation and measured after 24 hrs by Griess reagent based assay). Conditions: not given.
Type: functional, cell-based

`CCn1cc(C(=O)O[C@@H]2[C@H]3[C@@H](O)[C@@H](C)C[C@]3(O)C(=O)/C(C)=C/[C@@H]3[C@H](CC[C@]24CO4)C3(C)C)c(-c2ccc(N(C)C)cc2)n1` and `CCn1cc(C(=O)O[C@@H]2[C@H]3[C@@H](O)[C@@H](C)C[C@]3(O)C(=O)/C(C)=C/[C@@H]3[C@H](CC[C@]24CO4)C3(C)C)c(-c2ccc(C)cc2)n1` cannot be ordered by IC50: over 20 µM for the first, over 20 µM for the second.

`C=C1CC[C@H]2[C@@H](/C=C(\C)C(=O)[C@@]3(O)C[C@H](C)[C@H](O)[C@@H]3[C@H]1OC(=O)c1cn(CC)nc1-c1ccc(Cl)cc1)C2(C)C` and `C=C1CC[C@H]2[C@@H](/C=C(\C)C(=O)[C@@]3(O)C[C@H](C)[C@H](O)[C@@H]3[C@H]1OC(=O)c1cn(CC)nc1-c1ccc(C)cc1)C2(C)C` are within 1.5-fold of each other in IC50: 5.84 µM for the first, 7.73 µM for the second.

`C/C1=C\[C@@H]2[C@H](CC[C@]3(CO3)[C@H](OC(=O)c3cn(-c4ccccc4)nc3-c3ccc(N(C)C)cc3)[C@H]3[C@@H](O)[C@@H](C)C[C@]3(O)C1=O)C2(C)C` and `C/C1=C\[C@@H]2[C@H](CC[C@]3(CO3)[C@H](OC(=O)c3cn(-c4ccccc4)nc3-c3ccc(C)cc3)[C@H]3[C@@H](O)[C@@H](C)C[C@]3(O)C1=O)C2(C)C` cannot be ordered by IC50: over 20 µM for the first, over 20 µM for the second.

Compared with `C=C1CC[C@H]2[C@@H](/C=C(\C)C(=O)[C@@]3(O)C[C@H](C)[C@H](O)[C@@H]3[C@H]1OC(=O)c1cnc(NC(=O)/C=C/c3ccccc3)s1)C2(C)C`, `C=C1CC[C@H]2[C@@H](/C=C(\C)C(=O)[C@@]3(O)C[C@H](C)[C@H](O)[C@@H]3[C@H]1OC(=O)c1cnc(NC(=O)c3ccccc3)s1)C2(C)C` is lower in IC50: over 20 µM for the first, 7.03 µM for the second. The second is the more potent here.

`C=C1CC[C@H]2[C@@H](/C=C(\C)C(=O)[C@@]3(O)C[C@H](C)[C@H](O)[C@@H]3[C@H]1OC(=O)CCC(=O)NCCOc1no[n+]([O-])c1S(=O)(=O)c1ccccc1)C2(C)C` and `C=C1CC[C@H]2[C@@H](/C=C(\C)C(=O)[C@@]3(O)C[C@H](C)[C@H](O)[C@@H]3[C@H]1OC(=O)CCC(=O)OCCCCOc1no[n+]([O-])c1S(=O)(=O)c1ccccc1)C2(C)C` are within 1.5-fold of each other in IC50: 1.19 µM for the first, 1.55 µM for the second.

`CCn1cc(C(=O)O[C@@H]2[C@H]3[C@@H](O)[C@@H](C)C[C@]3(O)C(=O)/C(C)=C/[C@@H]3[C@H](CC[C@]24CO4)C3(C)C)c(-c2ccc(F)cc2)n1` and `CCn1cc(C(=O)O[C@@H]2[C@H]3[C@@H](O)[C@@H](C)C[C@]3(O)C(=O)/C(C)=C/[C@@H]3[C@H](CC[C@]24CO4)C3(C)C)c(-c2ccc(Cl)cc2)n1` are within 1.5-fold of each other in IC50: 13.3 µM for the first, 15.7 µM for the second.

Going from `C/C1=C\[C@@H]2[C@H](CC[C@]3(CO3)[C@H](OC(=O)CCC(=O)OCCCCOc3no[n+]([O-])c3S(=O)(=O)c3ccccc3)[C@H]3[C@@H](O)[C@@H](C)C[C@]3(O)C1=O)C2(C)C` to `C/C1=C\[C@@H]2[C@H](CC[C@]3(CO3)[C@H](OC(=O)CCC(=O)OCCOCCOc3no[n+]([O-])c3S(=O)(=O)c3ccccc3)[C@H]3[C@@H](O)[C@@H](C)C[C@]3(O)C1=O)C2(C)C`, the IC50 rises from 1.82 µM to 3.38 µM (1.9-fold).

Going from `C/C1=C\[C@@H]2[C@H](CC[C@]3(CO3)[C@H](OC(=O)CCC(=O)OCc3ccc(COc4no[n+]([O-])c4S(=O)(=O)c4ccccc4)cc3)[C@H]3[C@@H](O)[C@@H](C)C[C@]3(O)C1=O)C2(C)C` to `C=C1CC[C@H]2[C@@H](/C=C(\C)C(=O)[C@@]3(O)C[C@H](C)[C@H](O)[C@@H]3[C@H]1OC(=O)CCC(=O)OCc1ccc(COc3no[n+]([O-])c3S(=O)(=O)c3ccccc3)cc1)C2(C)C`, the IC50 rises from 2.61 µM to 5.36 µM (2.1-fold).

Going from `C/C1=C\[C@@H]2[C@H](CC[C@]3(CO3)[C@H](OC(=O)c3cn(-c4ccccc4)nc3-c3ccc(F)cc3)[C@H]3[C@@H](O)[C@@H](C)C[C@]3(O)C1=O)C2(C)C` to `C/C1=C\[C@@H]2[C@H](CC[C@]3(CO3)[C@H](OC(=O)c3cn(-c4ccccc4)nc3-c3ccc(Cl)cc3)[C@H]3[C@@H](O)[C@@H](C)C[C@]3(O)C1=O)C2(C)C`, the IC50 rises from 10.6 µM to over 20 µM. The first is the more potent here.

`C=C1CC[C@H]2[C@@H](/C=C(\C)C(=O)[C@@]3(O)C[C@H](C)[C@H](O)[C@@H]3[C@H]1OC(=O)c1cn(-c3ccccc3)nc1-c1ccc(OC)cc1)C2(C)C` and `C=C1CC[C@H]2[C@@H](/C=C(\C)C(=O)[C@@]3(O)C[C@H](C)[C@H](O)[C@@H]3[C@H]1OC(=O)c1cn(-c3ccccc3)nc1-c1ccc(C)cc1)C2(C)C` cannot be ordered by IC50: over 20 µM for the first, over 20 µM for the second.

First: C=C1CC[C@H]2[C@@H](/C=C(\C)C(=O)[C@@]3(O)C[C@H](C)[C@H](O)[C@@H]3[C@H]1OC(=O)CCN1C(=O)CS/C1=N\c1ccccc1)C2(C)C
Second: C/C1=C\[C@@H]2[C@H](CC[C@]3(CO3)[C@H](OC(=O)CCN3C(=O)CS/C3=N\c3ccccc3)[C@H]3[C@@H](O)[C@@H](C)C[C@]3(O)C1=O)C2(C)C
The IC50 of the first is lower: 8.24 µM for the first, over 20 µM for the second.

Going from `C=C1CC[C@H]2[C@@H](/C=C(\C)C(=O)[C@@]3(O)C[C@H](C)[C@H](O)[C@@H]3[C@H]1OC(=O)c1cn(-c3ccccc3)nc1-c1ccc(Cl)cc1)C2(C)C` to `C=C1CC[C@H]2[C@@H](/C=C(\C)C(=O)[C@@]3(O)C[C@H](C)[C@H](O)[C@@H]3[C@H]1OC(=O)c1cn(-c3ccccc3)nc1-c1ccc(F)cc1)C2(C)C`, the IC50 falls from over 20 µM to 10.8 µM. The second is the more potent here.

Going from `C=C1CC[C@H]2[C@@H](/C=C(\C)C(=O)[C@@]3(O)C[C@H](C)[C@H](O)[C@@H]3[C@H]1OC(=O)c1cn(CC)nc1-c1ccc(C(F)(F)F)cc1)C2(C)C` to `C=C1CC[C@H]2[C@@H](/C=C(\C)C(=O)[C@@]3(O)C[C@H](C)[C@H](O)[C@@H]3[C@H]1OC(=O)c1cn(CC)nc1-c1ccc(F)cc1)C2(C)C`, the IC50 rises from 7.8 µM to over 20 µM.

`CCn1cc(C(=O)O[C@@H]2[C@H]3[C@@H](O)[C@@H](C)C[C@]3(O)C(=O)/C(C)=C/[C@@H]3[C@H](CC[C@]24CO4)C3(C)C)c(-c2ccc(C(F)(F)F)cc2)n1` and `C=C1CC[C@H]2[C@@H](/C=C(\C)C(=O)[C@@]3(O)C[C@H](C)[C@H](O)[C@@H]3[C@H]1OC(=O)c1cn(-c3ccccc3)nc1-c1ccc(C(F)(F)F)cc1)C2(C)C` are within 1.5-fold of each other in IC50: 10.6 µM for the first, 11.2 µM for the second.

First: CC(=O)Nc1ncc(C(=O)O[C@@H]2[C@H]3[C@@H](O)[C@@H](C)C[C@]3(O)C(=O)/C(C)=C/[C@@H]3[C@H](CC[C@]24CO4)C3(C)C)s1
Second: C/C1=C\[C@@H]2[C@H](CC[C@]3(CO3)[C@H](OC(=O)c3cnc(NC(=O)c4ccccc4)s3)[C@H]3[C@@H](O)[C@@H](C)C[C@]3(O)C1=O)C2(C)C
The IC50 of the first is higher: over 20 µM for the first, 10.9 µM for the second.

First: C/C1=C\[C@@H]2[C@H](CC[C@]3(CO3)[C@H](OC(=O)CCC(=O)OCc3c(-c4ccccc4)no[n+]3[O-])[C@H]3[C@@H](O)[C@@H](C)C[C@]3(O)C1=O)C2(C)C
Second: C=C1CC[C@H]2[C@@H](/C=C(\C)C(=O)[C@@]3(O)C[C@H](C)[C@H](O)[C@@H]3[C@H]1OC(=O)CCC(=O)OCc1c(-c3ccccc3)no[n+]1[O-])C2(C)C
The IC50 of the first is 1.7-fold higher: 9.38 µM for the first, 5.47 µM for the second.

Compared with `C=C1CC[C@H]2[C@@H](/C=C(\C)C(=O)[C@@]3(O)C[C@H](C)[C@H](O)[C@@H]3[C@H]1O)C2(C)C`, `C/C1=C\[C@@H]2[C@H](CC[C@]3(CO3)[C@H](O)[C@H]3[C@@H](O)[C@@H](C)C[C@]3(O)C1=O)C2(C)C` is 2.3-fold higher in IC50: 11.1 µM for the first, 25.6 µM for the second.

Compared with `C=C1CC[C@H]2[C@@H](/C=C(\C)C(=O)[C@@]3(O)C[C@H](C)[C@H](O)[C@@H]3[C@H]1OC(=O)c1cnc(NC(=O)C3CCCCC3)s1)C2(C)C`, `C/C1=C\[C@@H]2[C@H](CC[C@]3(CO3)[C@H](OC(=O)c3cnc(NC(=O)C4CCCCC4)s3)[C@H]3[C@@H](O)[C@@H](C)C[C@]3(O)C1=O)C2(C)C` is 3.7-fold lower in IC50: 5.53 µM for the first, 1.49 µM for the second.

`C/C1=C\[C@@H]2[C@H](CC[C@]3(CO3)[C@H](OC(=O)CCC(=O)OCC#CCOc3no[n+]([O-])c3S(=O)(=O)c3ccccc3)[C@H]3[C@@H](O)[C@@H](C)C[C@]3(O)C1=O)C2(C)C` and `C=C1CC[C@H]2[C@@H](/C=C(\C)C(=O)[C@@]3(O)C[C@H](C)[C@H](O)[C@@H]3[C@H]1OC(=O)CCC(=O)OCC#CCOc1no[n+]([O-])c1S(=O)(=O)c1ccccc1)C2(C)C` are within 1.5-fold of each other in IC50: 1 µM for the first, 0.85 µM for the second.

Compared with `C=C1CC[C@H]2[C@@H](/C=C(\C)C(=O)[C@@]3(OC(C)=O)C[C@H](C)[C@H](OC(=O)c4ccccc4)[C@@H]3[C@H]1OC(C)=O)C2(C)C`, `C=C1CC[C@H]2[C@@H](/C=C(\C)C(=O)[C@@]3(O)C[C@H](C)[C@H](O)[C@@H]3[C@H]1OC(=O)c1cnc(NC(C)=O)s1)C2(C)C` is higher in IC50: 8.06 µM for the first, over 20 µM for the second.

Compared with `C/C1=C\[C@@H]2[C@H](CC[C@]3(CO3)[C@H](OC(=O)c3cnc(NC(=O)/C=C/c4ccccc4)s3)[C@H]3[C@@H](O)[C@@H](C)C[C@]3(O)C1=O)C2(C)C`, `C/C1=C\[C@@H]2[C@H](CC[C@]3(CO3)[C@H](OC(=O)CCC(=O)NCCOc3no[n+]([O-])c3S(=O)(=O)c3ccccc3)[C@H]3[C@@H](O)[C@@H](C)C[C@]3(O)C1=O)C2(C)C` is lower in IC50: over 20 µM for the first, 1.43 µM for the second. The second is the more potent here.

`C=C1CC[C@H]2[C@@H](/C=C(\C)C(=O)[C@@]3(O)C[C@H](C)[C@H](O)[C@@H]3[C@H]1OC(=O)c1cn(-c3ccccc3)nc1-c1ccc(N(C)C)cc1)C2(C)C` was tested, and the IC50 was over 20 µM.

The compounds below were run on RAW264.7 (assay: Antiinflammatory activity against mouse RAW264.7 cells assessed as inhibition of LPS-induced ROS generation at […] preincubated for 3 hrs followed by LPS stimulation and measured after 12 hrs by DCFH-DA probe based flow cytometry). Conditions: time 15.0 hrs.
Type: functional, cell-based

With `CC(=O)N[C@@H](CS)C(=O)O` the inhibition was “Active”.
